Measurements: patent US9233111B2, “Pyrrolo pyrimidine derivatives” (NOVARTIS AG, priority 2011, dated 2016)

Molecular target: full-length human recombinant BTK (Homo sapiens (Human), UniProt Q06187)
Test: Inhibition of Btk enzymatic activity (biochemical enzyme assay, Caliper)
Conditions: 30° C., 60 minutes
Description: The inhibitory activity of the present compounds against Btk was assessed in a biochemical enzyme assay. Assay plates in 384 well format were prepared with 8-point serial dilutions for the test compounds on a Thermo CatX workstation equipped with a Innovadyne Nanodrop Express. The assay plates were prepared by addition of 50 nl per well of compound solution in 90% DMSO. The kinase reactions were started by stepwise addition of 4.5 μl per well of peptide/ATP-solution (4 μM FITC-Ahx-[…]-NH2, 164 μM ATP) in kinase buffer (50 mM HEPES, pH 7.5, 1 mM DTT, 0.02% Tween20, 0.02% BSA, 0.6% DMSO, 10 mM beta-glycerophosphate, and 10 μM sodium orthovanadate, 18 mM MgCl2, 1 mM MnCl2) and 4.5 μl per well of enzyme solution (6.4 nM full-length human recombinant BTK) in kinase buffer. Kinase reactions were incubated at 30° C. for 60 minutes and subsequently terminated by addition of 16 μl per well of stop solution (100 mM HEPES pH 7.5, 5% DMSO, 0.1% Caliper coating reagent, 10 mM EDTA, and 0.015% Brij35). Kinase reactions were analyzed on a Caliper LC3000 workstation by separating phosphorylated and unphosphorylated peptides and kinase activities were calculated from the amounts of newly formed phospho-peptide. Inhibition data were calculated by comparison to control reactions without enzyme (100% inhibition) and without inhibitors (0% inhibition). The concentration of inhibitor required for 50% inhibition (IC50) was calculated from the inhibition in response to inhibitor concentrations.

Chain of full-length human recombinant BTK (Q06187 whole entry): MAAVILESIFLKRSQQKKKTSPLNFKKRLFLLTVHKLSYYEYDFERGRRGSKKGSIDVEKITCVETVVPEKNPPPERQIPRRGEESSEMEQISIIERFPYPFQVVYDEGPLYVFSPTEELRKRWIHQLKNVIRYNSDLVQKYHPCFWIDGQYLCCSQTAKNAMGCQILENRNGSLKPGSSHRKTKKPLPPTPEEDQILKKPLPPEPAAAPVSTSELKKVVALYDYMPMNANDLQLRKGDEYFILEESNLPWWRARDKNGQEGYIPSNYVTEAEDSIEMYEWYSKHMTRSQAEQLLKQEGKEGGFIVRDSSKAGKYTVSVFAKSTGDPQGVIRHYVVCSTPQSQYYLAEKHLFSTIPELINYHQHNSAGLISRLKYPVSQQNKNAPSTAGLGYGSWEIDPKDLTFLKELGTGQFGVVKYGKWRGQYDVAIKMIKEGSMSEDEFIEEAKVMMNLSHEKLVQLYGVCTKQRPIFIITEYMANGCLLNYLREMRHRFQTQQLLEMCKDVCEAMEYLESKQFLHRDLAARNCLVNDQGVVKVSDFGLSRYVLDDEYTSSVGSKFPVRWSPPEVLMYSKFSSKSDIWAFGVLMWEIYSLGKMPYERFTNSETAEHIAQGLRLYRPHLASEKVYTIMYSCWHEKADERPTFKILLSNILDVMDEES

Q: For Cc1c(NC(=O)c2ccc(C3(F)CC3)cc2)cc(F)cc1-c1ncnc2[nH]c(C3=CCN(C(=O)N(C)C)CC3)cc12 [Example 1, 4-(4-{5-Fluoro-3-[4-(1-fluoro-cyclopropyl)-benzoylamino]-2-methyl-phenyl}-7H-pyrrolo[2′3-d]pyrimidin-6-yl)-3,6-dihydro-2H-pyridine-1-carboxylic acid dimethylamide], which IC50 is on record?
A: 1 nM

Q: How did the IC50 turn out when Cc1c(NC(=O)c2ccc(N(C)C(C)C)cc2)cc(F)cc1-c1ncnc2[nH]c(C3=CCN(C(=O)N(C)C)CC3)cc12 [Example 4] was run?
A: 2 nM

Q: Which IC50 does the source give for Cc1c(NC(=O)c2ccc3c(C)c[nH]c3c2)cc(F)cc1-c1ncnc2[nH]c(C3=CCN(C(=O)N(C)C)CC3)cc12 [Example 5, 3-Methyl-1H-indole-6-carboxylic acid {3-[6-(1-dimethylcarbamoyl-1,2,3,6-tetrahydro-pyridin-4-yl)-7H-pyrrolo[2,3-d]pyrimidin-4-yl]-5-fluoro-2-methyl-phenyl}-amide] here?
A: 3 nM

Q: Cc1c(NC(=O)c2ccc(N3CCCCC3)cc2)cc(F)cc1-c1ncnc2[nH]c(C3=CCN(C(=O)N(C)C)CC3)cc12 [Example 7, 4-{4-[5-Fluoro-2-methyl-3-(4-piperidin-1-yl-benzoylamino)-phenyl]-7H-pyrrolo[2,3-d]pyrimidin-6-yl}-3,6-dihydro-2H-pyridine-1-carboxylic acid dimethylamide] was tested. Which IC50 did it give?
A: 3 nM

Q: With Cc1c(NC(=O)c2ccc(C3(C(F)(F)F)CC3)cc2)cc(F)cc1-c1ncnc2[nH]c(C3=CCN(C(=O)N(C)C)CC3)cc12 [Example 9, 4-(4-{5-Fluoro-2-methyl-3-[4-(1-trifluoromethyl-cyclopropyl)-benzoylamino]-phenyl}-7H-pyrrolo[2,3-d]pyrimidin-6-yl)-3,6-dihydro-2H-pyridine-1-carboxylic acid dimethylamide] as the molecule, how does the IC50 read?
A: 5 nM

Q: Cc1c(NC(=O)c2ccc(OC(C)C)cc2)cc(F)cc1-c1ncnc2[nH]c(C3=CCN(C(=O)N(C)C)CC3)cc12 [Example 10, 4-{4-[5-Fluoro-3-(4-isopropoxy-benzoylamino)-2-methyl-phenyl]-7H-pyrrolo[2,3-d]pyrimidin-6-yl}-3,6-dihydro-2H-pyridine-1-carboxylic acid dimethylamide] was tested. Which IC50 did it give?
A: 15 nM

Q: How did the IC50 turn out when Cc1c(NC(=O)c2ccc(S(F)(F)(F)(F)F)cc2)cc(F)cc1-c1ncnc2[nH]c(C3=CCN(C(=O)N(C)C)CC3)cc12 [Example 11, 4-(4-{5-Fluoro-3-[4-pentafluorothio-benzoylamino]-2-methyl-phenyl}-7H-pyrrolo[2,3-d]pyrimidin-6-yl)-3,6-dihydro-2H-pyridine-1-carboxylic acid dimethylamide] was run?
A: 5 nM

Q: How did the IC50 turn out when COCC(C)(C)c1ccc(C(=O)Nc2cc(F)cc(-c3ncnc4[nH]c(C5=CCN(C(=O)N(C)C)CC5)cc34)c2C)cc1 [Example 12, 4-(4-{5-Fluoro-3-[4-(2-methoxy-1,1-dimethyl-ethyl)-benzoylamino]-2-methyl-phenyl}-7H-pyrrolo[2,3-d]pyrimidin-6-yl)-3,6-dihydro-2H-pyridine-1-carboxylic acid dimethylamide] was run?
A: 4 nM

Q: With COC(C)(C)c1ccc(C(=O)Nc2cc(F)cc(-c3ncnc4[nH]c(C5=CCN(C(=O)N(C)C)CC5)cc34)c2C)cc1 [Example 13, 4-(4-{5-Fluoro-3-[4-(1-methoxy-1-methyl-ethyl)-benzoylamino]-2-methyl-phenyl}-7H-pyrrolo[2,3-d]pyrimidin-6-yl)-3,6-dihydro-2H-pyridine-1-carboxylic acid dimethylamide] as the molecule, how does the IC50 read?
A: 4 nM

Q: For Cc1c(NC(=O)c2ccc3ccn(C)c3n2)cc(F)cc1-c1ncnc2[nH]c(C3=CCN(C(=O)N(C)C)CC3)cc12 [Example 14, 1-Methyl-1H-pyrrolo[2,3-b]pyridine-6-carboxylic acid {3-[6-(1-dimethyl-carbamoyl-1,2,3,6-tetrahydro-pyridin-4-yl)-7H-pyrrolo[2,3-d]pyrimidin-4-yl]-5-fluoro-2-methyl-phenyl}-amide], which IC50 is on record?
A: 16 nM

Q: Cc1c(NC(=O)c2ccc(N(C)C)cc2)cc(F)cc1-c1ncnc2[nH]c(C3=CCN(C(=O)N(C)C)CC3)cc12 [Example 15, 4-{4-[3-(4-Dimethylamino-benzoylamino)-5-fluoro-2-methyl-phenyl]-7H-pyrrolo[2,3-d]pyrimidin-6-yl}-3,6-dihydro-2H-pyridine-1-carboxylic acid dimethylamide] was tested. Which IC50 did it give?
A: 17 nM

Q: How did the IC50 turn out when Cc1c(NC(=O)c2ccc(C(C)(O)C(F)(F)F)cc2)cc(F)cc1-c1ncnc2[nH]c(C3=CCN(C(=O)N(C)C)CC3)cc12 (stereo not shown) [Example 18, 4-(4-{5-Fluoro-2-methyl-3-[4-(2,2,2-trifluoro-1-hydroxy-1-methyl-ethyl)-benzoylamino]-phenyl}-7H-pyrrolo[2,3-d]pyrimidin-6-yl)-3,6-dihydro-2H-pyridine-1-carboxylic acid dimethylamide] was run?
A: 6 nM

Q: How did the IC50 turn out when CC(=O)c1ccc(C(=O)Nc2cc(F)cc(-c3ncnc4[nH]c(C5=CCN(C(=O)N(C)C)CC5)cc34)c2C)cc1 [Example 19, 4-{4-[3-(4-Acetyl-benzoylamino)-5-fluoro-2-methyl-phenyl]-7H-pyrrolo[2,3-d]pyrimidin-6-yl}-3,6-dihydro-2H-pyridine-1-carboxylic acid dimethylamide] was run?
A: 23 nM

Q: CN(C)C(=O)N1CC=C(c2cc3c(-c4ccc(F)c(NC(=O)c5ccc(C6CC6)cc5)c4)ncnc3[nH]2)CC1 [Example 20, 4-{4-[3-(4-Cyclopropyl-benzoylamino)-4-fluoro-phenyl]-7H-pyrrolo[2,3-d]pyrimidin-6-yl}-3,6-dihydro-2H-pyridine-1-carboxylic acid dimethylamide] was tested. Which IC50 did it give?
A: 6 nM

Q: With CN(C)C(=O)N1CC=C(c2cc3c(-c4ccc(F)c(NC(=O)c5ccc(C(C)(C)CO)cc5)c4)ncnc3[nH]2)CC1 [Example 21, 4-(4-{4-Fluoro-3-[4-(2-hydroxy-1,1-dimethyl-ethyl)-benzoylamino]-phenyl}-7H-pyrrolo[2,3-d]pyrimidin-6-yl)-3,6-dihydro-2H-pyridine-1-carboxylic acid dimethylamide] as the molecule, how does the IC50 read?
A: 6 nM

Q: How did the IC50 turn out when Cc1c(NC(=O)c2ccc(C(C)(C)O)cc2F)cc(F)cc1-c1ncnc2[nH]c(C3=CCOCC3)cc12 [Example 22, N-{3-[6-(3,6-Dihydro-2H-pyran-4-yl)-7H-pyrrolo[2,3-d]pyrimidin-4-yl]-5-fluoro-2-methyl-phenyl}-2-fluoro-4-(1-hydroxy-1-methyl-ethyl)-benzamide] was run?
A: 8 nM

Q: CC(C)(O)c1ccc(C(=O)Nc2cccc(-c3ncnc4[nH]c(C5=CCOCC5)cc34)c2CO)c(F)c1 [Example 23, N-{3-[6-(3,6-Dihydro-2H-pyran-4-yl)-7H-pyrrolo[2,3-d]pyrimidin-4-yl]-2-hydroxymethyl-phenyl}-2-fluoro-4-(1-hydroxy-1-methyl-ethyl)-benzamide] was tested. Which IC50 did it give?
A: 12 nM

Q: With Cc1c(NC(=O)c2ccc(C(C)(C)C)cc2)cc(F)cc1-c1ncnc2[nH]c(C3=CC[S+]([O-])CC3)cc12 (stereo not shown) [Example 25, 4-tert-Butyl-N-{5-fluoro-2-methyl-3-[6-(3,6-dihydro-1-oxido-2H-thiopyran-4-yl)-7H-pyrrolo[2,3-d]pyrimidin-4-yl]-phenyl}-benzamide] as the molecule, how does the IC50 read?
A: 2 nM

Q: Cc1c(NC(=O)c2ccc(C(C)(C)C)cc2)cc(F)cc1-c1ncnc2[nH]c(C3=CCS(=O)(=O)CC3)cc12 [Example 26, 4-tert-Butyl-N-{3-[6-(3,6-dihydro-1,1-dioxido-2H-thiopyran-4-yl)-7H-pyrrolo[2,3-d]pyrimidin-4-yl]-5-fluoro-2-methyl-phenyl}-benzamide] was tested. Which IC50 did it give?
A: 35 nM
